≈ marks a conversion by molar mass, not a printed value.
Key:
MDCK [1] = assay: Anti-influenza virus activity was evaluated in Madin-Darby canine kidney (MDCK) cells against influenza A H3N2 (X31); type: functional; conditions: Canis lupus familiaris
MDCK [2] = assay: Concentration required to reduce the viability of MDCK cells; type: functional, Canis lupus familiaris
MDCK [3] = assay: Anti-influenza virus activity was evaluated in Madin-Darby canine kidney (MDCK) cells against influenza A H2N2 strain (A2 Japan/305/57); type: functional; conditions: Canis lupus familiaris
MDCK [4] = assay: Anti-influenza virus activity was evaluated in Madin-Darby canine kidney (MDCK) cells against influenza B (Hong Kong/5/72); type: functional; conditions: Canis lupus familiaris

SMILES | MIC50 (MDCK [1]) | MTC50 (MDCK [2]) | MIC50 (MDCK [3]) | MIC50 (MDCK [4])
CN1CCCCC1C1C2CC3CC(C2)CC1C3 (stereo unspecified) | > 143 µM | 977 µM | > 143 µM | > 143 µM
CCN1CCCCC1C1C2CC3CC(C2)CC1C3 (stereo unspecified) | > 28 µM | 143 µM | > 28 µM | > 28 µM
C1CCC(C2C3CC4CC(C3)CC2C4)NC1 (stereo unspecified) | > 977 µM | >977 µM | 7.8 µM (≈ 1.71 µg/mL) | > 977 µM
C1CCN(CC2CC2)C(C2C3CC4CC(C3)CC2C4)C1 (stereo unspecified) | > 143 µM | 977 µM | 143 µM (≈ 39.1 µg/mL) | > 143 µM
CC(N)C12CC3CC(CC(C3)C1)C2 (stereo unspecified) [RIMANTADINE] | > 56 µM | 1160 µM | 20.9 µM (≈ 3.75 µg/mL) | > 93 µM
NC12CC3CC(CC(C3)C1)C2 [AMANTADINE] |  | 1333 µM | 28.3 µM (≈ 4.28 µg/mL) | 
NC(=O)c1ncn([C@@H]2O[C@H](CO)[C@@H](O)[C@H]2O)n1 [RIBAVIRIN] | 41 µM (≈ 10 µg/mL) | >1025 µM | 31.1 µM (≈ 7.59 µg/mL) | 41 µM (≈ 10 µg/mL)

From ChEMBL document CHEMBL1131911, “Synthesis of 2-(2-adamantyl)piperidines and structure anti-influenza virus A activity relationship study using a combination of NMR spectroscopy and molecular modeling” (1999)
